According to US11872262B2, “Means and methods for treating bacterial infections” (VIB VZW, priority 2017, dated 2024):
Residues, ends and D or L forms follow the SMILES beside them.

Test system: E. coli O157:H7
Type: cell-based, Escherichia coli
Details: screening-stage peptides tested at 1, 6, 12 and 25 μg/mL
Text: In the present invention we used the statistical thermodynamics algorithm TANGO to identify aggregation prone regions (APR) in the proteome of E. coli strain O157:H7. This yielded 3535 sequences of at least 6 amino acids in length and a TANGO score of at least 20%. In order to generate efficient aggregation seeds, we employed a previously devised tandem repeat design ^19, 21, in which the APRs are repeated once and separated by a linker. Given the length limitation on solid phase peptide synthesis with regard to yield and purity, we focused on the 1542 APRs with a length of 7 amino acids. In order to maximize the potential of these peptides to induce aggregation in E. coli, we ranked the APRs by their frequency of occurrence throughout the E. coli proteome, allowing a single amino acid mismatch, and selected the first 75 most frequently occurring sequences from this list (Table 4). In the design pattern, and in order to increase the colloidal stability of these aggregating peptides, the APRs are flanked by aggregation gatekeepers, a class of residues that was previously shown to reduce aggregation kinetics^22-24. […] To generate the tandem we used a single proline residue as a linker between the gatekeeper-flanked APRs. In addition to the 75 peptides generated in this fashion, we added 2 variants of each of the first 25 peptides in the list by randomly mutating one residue in the first APR repeat to arginine to further modulate the aggregation propensity of the peptides (Table 4). All the peptides were generated using solid phase synthesis at 200 nmole scale and dissolved in DMSO to a theoretical stock concentration of 2 mM (assuming 100% synthesis efficiency). Peptide activity on the growth of E. coli O157:H7 was measured at dilutions of the peptide corresponding to concentrations of 1, 6, 12 and 25 μg/mL. […] The Matthews Correlations Coefficient (MCC) with the measured activity was 0.1 at 12 μg/mL and 0.24 at 25 μg/mL.

SMILES	E. coli O157 (apparent MIC in screen) [µg/mL]
CC(C)C[C@H](NC(=O)CNC(=O)[C@H](CC(C)C)NC(=O)[C@@H](NC(=O)[C@H](C)NC(=O)[C@H](CCCNC(=N)N)NC(=O)[C@@H]1CCCN1C(=O)[C@H](CCCNC(=N)N)NC(=O)[C@H](CCCNC(=N)N)NC(=O)[C@H](C)NC(=O)[C@H](CC(C)C)NC(=O)[C@H](CC(C)C)NC(=O)CNC(=O)[C@H](CCCNC(=N)N)NC(=O)[C@@H](NC(=O)[C@H](C)NC(=O)[C@@H](N)CCCNC(=N)N)C(C)C)C(C)C)C(=O)N[C@@H](CC(C)C)C(=O)N[C@@H](C)C(=O)N[C@@H](CCCNC(=N)N)C(=O)N[C@@H](CCCNC(=N)N)C(=O)O [Peptide P88] (H-RAVRGLLARRPRAVLGLLARR-OH; N-terminus and C-terminus assumed)	25
CC(C)C[C@H](NC(=O)CNC(=O)[C@H](CCCNC(=N)N)NC(=O)[C@@H]1CCCN1C(=O)[C@H](CCCNC(=N)N)NC(=O)[C@H](CCCNC(=N)N)NC(=O)[C@H](C)NC(=O)[C@H](CC(C)C)NC(=O)[C@H](CCCNC(=N)N)NC(=O)[C@H](C)NC(=O)[C@H](CC(C)C)NC(=O)[C@H](CC(C)C)NC(=O)CNC(=O)[C@@H](N)CCCNC(=N)N)C(=O)N[C@@H](CC(C)C)C(=O)N[C@@H](C)C(=O)N[C@@H](CC(C)C)C(=O)N[C@@H](CC(C)C)C(=O)N[C@@H](C)C(=O)N[C@@H](CCCNC(=N)N)C(=O)N[C@@H](CCCNC(=N)N)C(=O)O [Peptide P89] (H-RGLLARLARRPRGLLALLARR-OH; N-terminus and C-terminus assumed)	12
CC[C@H](C)[C@H](NC(=O)CNC(=O)[C@H](CCCNC(=N)N)NC(=O)[C@H](CC(C)C)NC(=O)[C@@H](N)CCCNC(=N)N)C(=O)N[C@@H](C)C(=O)N[C@@H](CC(C)C)C(=O)NCC(=O)N[C@@H](CCCNC(=N)N)C(=O)N[C@@H](CCCNC(=N)N)C(=O)N1CCC[C@H]1C(=O)N[C@@H](CCCNC(=N)N)C(=O)N[C@@H](CC(C)C)C(=O)N[C@H](C(=O)NCC(=O)N[C@H](C(=O)N[C@@H](C)C(=O)N[C@@H](CC(C)C)C(=O)NCC(=O)N[C@@H](CCCNC(=N)N)C(=O)N[C@@H](CCCNC(=N)N)C(=O)O)[C@@H](C)CC)[C@@H](C)CC [Peptide P90] (H-RLRGIALGRRPRLIGIALGRR-OH; N-terminus and C-terminus assumed)	25
CC(C)C[C@H](NC(=O)[C@H](C)NC(=O)[C@@H](N)CCCNC(=N)N)C(=O)N[C@@H](CC(C)C)C(=O)N[C@H](C(=O)N[C@@H](C)C(=O)N[C@@H](CCCNC(=N)N)C(=O)N[C@@H](CC(C)C)C(=O)N[C@@H](CCCNC(=N)N)C(=O)N[C@@H](CCCNC(=N)N)C(=O)N1CCC[C@H]1C(=O)N[C@@H](CCCNC(=N)N)C(=O)N[C@@H](C)C(=O)N[C@@H](CC(C)C)C(=O)N[C@@H](CC(C)C)C(=O)N[C@H](C(=O)N[C@@H](C)C(=O)N[C@H](C(=O)N[C@@H](CC(C)C)C(=O)N[C@@H](CCCNC(=N)N)C(=O)N[C@@H](CCCNC(=N)N)C(=O)O)C(C)C)[C@@H](C)O)[C@@H](C)O [Peptide P91] (H-RALLTARLRRPRALLTAVLRR-OH; N-terminus and C-terminus assumed)	25
CC(C)C[C@H](NC(=O)[C@H](C)NC(=O)[C@@H](NC(=O)[C@H](CC(C)C)NC(=O)[C@H](CCC(N)=O)NC(=O)[C@H](CCCNC(=N)N)NC(=O)[C@@H]1CCCN1C(=O)[C@H](CCCNC(=N)N)NC(=O)[C@H](CCCNC(=N)N)NC(=O)[C@@H](NC(=O)[C@H](CC(C)C)NC(=O)[C@H](CCCNC(=N)N)NC(=O)[C@H](C)NC(=O)[C@@H](NC(=O)[C@H](CC(C)C)NC(=O)[C@H](CCC(N)=O)NC(=O)[C@@H](N)CCCNC(=N)N)C(C)C)C(C)C)C(C)C)C(=O)N[C@@H](CC(C)C)C(=O)N[C@H](C(=O)N[C@@H](CCCNC(=N)N)C(=O)N[C@@H](CCCNC(=N)N)C(=O)O)C(C)C [Peptide P92] (H-RQLVARLVRRPRQLVALLVRR-OH; N-terminus and C-terminus assumed)	6
